Paper PMC12051620, “Molecular basis underlying the specificity of an antagonist AA92593 for mammalian melanopsins” (The Journal of Biological Chemistry, 2025)

How the values were obtained:
[1] = target: T1, human melanopsin F94^2.61C/S188^ECL2T/S269^6.52A mutant (Homo sapiens, UniProt Q9UHM6, F127C/S222T/S313A); assay: GsX GloSensor assay with Gsα/q11; assay type: cell-based; conditions: 16.7 μM AA92593, COS-1 cells
T1 construct: expressed in transfected cells; host or cells: COS-1
Source text: (§1) The single substitutions F94^2.61C, S188^ECL2T, and S269^6.52A in mammalian melanopsins reduced the inhibitory effects of AA92593 (Figs. 2G and 3E). We suspected that the combination of these substitutions would further decrease the AA92593 effect. We thus introduced the triple substitutions F94^2.61C/S188^ECL2T/S269^6.52A into human and mouse melanopsins and examined the inhibitory effects of AA92593. In both mammalian melanopsins, the F94^2.61C/S188^ECL2T/S269^6.52A substitution reduced the inhibitory effect of AA92593 more than the single substitutions (∼63% and ∼35% reductions for human and mouse melanopsins, respectively) (Figs. 2, F and G, 3, D and E).
(§2) For GloSensor assay, opsins, GloSensor assay sensor (coded by pGlo-22F), and NanoBiT-tagged G proteins were transiently expressed in COS-1 cells (kindly provided from Dr David Farrens, Oregon Health and Science University) using PEI as described previously ([24], [52]). For the GsX GloSensor assay ([12], [13]), each well of a 96-well assay plate (Corning) was transfected with 50 ng opsin plasmid, 16.7 ng G protein plasmid, 50 ng pGlo-22F plasmid (Promega), and 500 ng PEI in 25 μl Opti-mem and 75 μl Dulbecco's modified Eagle's medium (D-MEM). […] For GFP-fluorescence microscopy, a 35-mm cell culture dish (IWAKI) was transfected with 2 μg melanopsin-GFP plasmid and 8 μg PEI in 400 μl Opti-mem and 1.2 ml D-MEM. […]

[2] = target: T2, mouse melanopsin F94^2.61C/S188^ECL2T/S269^6.52A mutant (Mus musculus, UniProt Q9QXZ9, F126C/S221T/S310A); assay: GsX GloSensor assay with Gsα/q11; assay type: cell-based; conditions: 16.7 μM AA92593, COS-1 cells
T2 construct: expressed in transfected cells; host or cells: COS-1
T2 sequence (Q9QXZ9 1-381 F126C/S221T/S310A): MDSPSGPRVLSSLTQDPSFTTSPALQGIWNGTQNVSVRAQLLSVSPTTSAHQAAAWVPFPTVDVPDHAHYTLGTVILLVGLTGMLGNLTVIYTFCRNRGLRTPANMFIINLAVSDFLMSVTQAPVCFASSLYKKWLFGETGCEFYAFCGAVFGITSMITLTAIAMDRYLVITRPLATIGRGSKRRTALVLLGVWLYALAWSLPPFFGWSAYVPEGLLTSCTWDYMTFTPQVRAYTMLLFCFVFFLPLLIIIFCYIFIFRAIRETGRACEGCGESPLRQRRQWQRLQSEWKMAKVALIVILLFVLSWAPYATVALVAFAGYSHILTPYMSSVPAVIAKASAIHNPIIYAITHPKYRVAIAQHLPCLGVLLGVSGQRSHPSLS
Source text: as §1, §2

T1 sequence (Q9UHM6 1-384 F127C/S222T/S313A): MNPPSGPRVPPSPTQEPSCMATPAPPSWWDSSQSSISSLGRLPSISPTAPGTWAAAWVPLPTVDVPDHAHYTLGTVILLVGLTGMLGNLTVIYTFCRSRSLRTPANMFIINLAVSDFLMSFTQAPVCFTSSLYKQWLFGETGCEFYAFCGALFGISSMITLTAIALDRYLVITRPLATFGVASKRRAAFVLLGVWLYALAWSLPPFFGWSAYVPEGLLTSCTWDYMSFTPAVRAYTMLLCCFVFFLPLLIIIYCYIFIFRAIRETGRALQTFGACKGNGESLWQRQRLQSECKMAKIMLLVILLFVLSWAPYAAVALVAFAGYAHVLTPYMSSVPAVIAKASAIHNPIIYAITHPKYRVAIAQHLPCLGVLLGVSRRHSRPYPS

COc1ccc(S(=O)(=O)N2CCCCC2)cc1C [AA92593]
reduction of the inhibitory effect of AA92593 vs WT [1]: ~63% | reduction of the inhibitory effect of AA92593 vs WT [2]: ~35%
